Results as given in ChEMBL document CHEMBL1201862, “PubChem BioAssay data set” (2004).
Each block holds one compound with its values, some of them ahead of it. Activity calls are given as the source filed them.

Key:
[1] = target: T1, Zinc finger protein mex-5 (Caenorhabditis elegans, UniProt Q9XUB2); assay: MEX-5/TCR-2 RNA interaction inhibitors, dose response, biochemical, C. elegans, fluorescence polarization (AID 1960)
T1 sequence (Q9XUB2 whole entry): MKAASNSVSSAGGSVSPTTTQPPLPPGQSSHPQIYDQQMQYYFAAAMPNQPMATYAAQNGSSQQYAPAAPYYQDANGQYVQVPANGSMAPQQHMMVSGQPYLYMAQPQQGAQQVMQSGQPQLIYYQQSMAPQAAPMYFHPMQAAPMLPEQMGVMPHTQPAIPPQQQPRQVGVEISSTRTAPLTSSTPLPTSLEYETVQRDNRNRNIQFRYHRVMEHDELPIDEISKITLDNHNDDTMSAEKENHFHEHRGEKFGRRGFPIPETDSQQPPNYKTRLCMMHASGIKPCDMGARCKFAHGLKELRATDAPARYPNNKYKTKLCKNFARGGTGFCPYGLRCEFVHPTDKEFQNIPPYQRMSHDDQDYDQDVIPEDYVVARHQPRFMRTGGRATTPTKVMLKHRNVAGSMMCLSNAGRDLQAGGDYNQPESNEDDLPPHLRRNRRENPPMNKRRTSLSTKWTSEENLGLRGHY

[2] = target: T2, Corticotropin-releasing factor receptor 2/Corticotropin-releasing factor-binding protein (Homo sapiens, UniProt P24387+Q13324); assay: activators of CRF receptor 2 with binding protein – uHTS hits, confirmation (AID 602473); assay type: functional; conditions: read-out: EC50_Mean
T2 sequence (Q13324 whole entry): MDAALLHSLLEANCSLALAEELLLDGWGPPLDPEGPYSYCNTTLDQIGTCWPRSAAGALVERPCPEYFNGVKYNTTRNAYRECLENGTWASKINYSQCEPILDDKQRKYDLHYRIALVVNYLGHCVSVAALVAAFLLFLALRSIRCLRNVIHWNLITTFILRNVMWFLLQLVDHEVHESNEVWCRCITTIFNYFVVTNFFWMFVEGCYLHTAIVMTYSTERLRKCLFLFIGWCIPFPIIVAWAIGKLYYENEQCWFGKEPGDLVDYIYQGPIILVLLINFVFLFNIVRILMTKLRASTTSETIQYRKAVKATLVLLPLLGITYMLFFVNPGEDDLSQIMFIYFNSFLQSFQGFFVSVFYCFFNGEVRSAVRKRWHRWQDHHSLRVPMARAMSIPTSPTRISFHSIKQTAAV
T2 sequence (P24387 whole entry): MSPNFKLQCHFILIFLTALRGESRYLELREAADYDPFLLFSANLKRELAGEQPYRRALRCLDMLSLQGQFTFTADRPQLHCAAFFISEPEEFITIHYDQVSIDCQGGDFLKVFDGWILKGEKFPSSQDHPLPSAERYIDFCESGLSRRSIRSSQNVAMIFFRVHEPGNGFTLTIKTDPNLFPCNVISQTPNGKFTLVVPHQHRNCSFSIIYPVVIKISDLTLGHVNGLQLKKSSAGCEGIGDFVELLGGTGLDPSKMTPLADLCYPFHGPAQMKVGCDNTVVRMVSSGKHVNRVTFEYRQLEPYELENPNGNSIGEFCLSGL

[3] = target: T3, RNA-binding protein pos-1 (Caenorhabditis elegans, UniProt G5EF15); assay: inhibitors of POS-1/mex-3 RNA binding, dose response, biochemical, fluorescence polarization (AID 1964);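 also: purified POS-1 fused to maltose binding protein made in E. coli; potency of compounds blocking POS-1 binding to fluorescent RNA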
T3 sequence (G5EF15 whole entry): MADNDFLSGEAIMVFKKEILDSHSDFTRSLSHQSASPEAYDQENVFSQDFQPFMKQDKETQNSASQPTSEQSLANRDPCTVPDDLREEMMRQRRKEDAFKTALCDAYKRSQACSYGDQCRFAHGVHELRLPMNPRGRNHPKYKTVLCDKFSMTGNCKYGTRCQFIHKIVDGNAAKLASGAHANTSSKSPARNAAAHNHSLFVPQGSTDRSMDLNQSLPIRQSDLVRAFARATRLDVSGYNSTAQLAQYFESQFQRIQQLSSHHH

[4] = target: Mucolipin-3 (Homo sapiens, UniProt Q8TDD5); assay: Fluorescence counterscreen assay for […] agonists: dose response cell-based high-throughput screening assay to identify agonists of the transient receptor potential channel ML3 (TRPML3). [Related pubchem assays: 1424, 1448 ]; assay type: functional
[5] = target: Ion channel NompC (Danio rerio, UniProt Q7T1G6); assay: Dose response cell-based high-throughput screening assay for agonists of the transient receptor potential channel N1 (TRPN1). [Related pubchem assays (depositor defined):AID1424, AID1448]; assay type: functional
[6] = target: Perilipin-1/ABHD5 (Homo sapiens, UniProt O60240+Q8WTS1); assay: Luminescence-based biochemical high throughput dose response assay for inhibitors of the interaction of the lipase co-activator protein, abhydrolase domain containing 5 (ABHD5) with perilipin-1 (PLIN1) (2K validation set). [Related pubchem assays (depositor defined):AID493027, AID493057]
[7] = target: 1-acylglycerol-3-phosphate O-acyltransferase ABHD5/Perilipin-5 (Homo sapiens, UniProt Q00G26+Q8WTS1); assay: Luminescence-based biochemical high throughput dose response assay for inhibitors of the interaction of the lipase co-activator protein, abhydrolase domain containing 5 (ABHD5) with perilipin-5 (MLDP; PLIN5) (2K validation set). [Related pubchem assays (depositor defined):AID493035, AID493241]
[8] = target: 72 kDa type IV collagenase (Homo sapiens, UniProt P08253); assay: Dose Response validation of uHTS RPN11 inhibitor hits using a MMP-2 Fluorescence assay.; assay type: functional
[9] = target: Protein Wnt-3a (Mus musculus, UniProt P27467); assay: Wnt3a-driven reporter signaling inhibition, dose response, selectivity assay for Gli-SUFU antagonist project, Wnt-LIGHT cells, luminescence (AID 651570); assay type: functional; conditions: read-out: IC50_Mean;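 also: Wnt-LIGHT reporter cells stimulated with conditioned medium from Wnt3a-producing cells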
[10] = target: T4, Kappa-type opioid receptor (Homo sapiens, UniProt P41145); assay type: functional
[11] = target: T4, Kappa-type opioid receptor; assay type: functional; remark: listed apart in the source
[12] = target: Prothrombin (Bos taurus, UniProt P00735); assay: thrombin inhibition, dose response, biochemical, fluorescence polarization, uHTS hits (AID 602369); assay type: functional
[13] = target: T5, Beta-galactosidase (Escherichia coli, UniProt Q8VNN2); assay type: functional
[14] = target: T5, Beta-galactosidase; assay: PubChem AID 485352; assay type: functional
[15] = target: 26S proteasome non-ATPase regulatory subunit 14 (Homo sapiens, UniProt O00487); assay: inhibition of proteasome subunit RPN11 – biochemical, fluorescence polarization, uHTS hits, confirmation (AID 602368); assay type: functional
[16] = target: T6, Type-1 angiotensin II receptor (Homo sapiens, UniProt P30556); assay: AT1 receptor antagonists, dose response, selectivity assay for APJ receptor antagonist project, cell-based, uHTS hits (AID 463214); assay type: functional;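 also: antagonist potency against angiotensin II stimulated AT1 response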
T6 sequence (P30556 whole entry): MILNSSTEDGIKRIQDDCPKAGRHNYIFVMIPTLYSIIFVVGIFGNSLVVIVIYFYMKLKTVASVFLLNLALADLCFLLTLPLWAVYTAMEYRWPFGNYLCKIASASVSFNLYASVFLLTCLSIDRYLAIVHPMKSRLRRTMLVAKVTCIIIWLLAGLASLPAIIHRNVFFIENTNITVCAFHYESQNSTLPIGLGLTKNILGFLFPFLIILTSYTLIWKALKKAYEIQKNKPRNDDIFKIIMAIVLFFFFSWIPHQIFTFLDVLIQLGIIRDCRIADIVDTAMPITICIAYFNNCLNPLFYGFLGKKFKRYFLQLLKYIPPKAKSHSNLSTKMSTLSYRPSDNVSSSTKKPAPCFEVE

[17] = inhibitors of intracellular T. cruzi replication, confirmation, NIH3T3 host cells, beta-gal luminescence (AID 2044); assay type: functional, cell-based;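 also: intracellular parasites grown in NIH/3T3 mouse fibroblasts as host cells; luminescent beta-galactosidase reporter signal from transgenic T. cruzi replicating inside host cells; inhibitors lower the luminescence signal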
[18] = target: Hexokinase-1 (Homo sapiens, UniProt P19367); assay: hexokinase 1 activators, dose response, selectivity assay for HKDC1 activator project, biochemical (AID 504762); assay type: functional
[19] = target: T7, Hexokinase HKDC1 (Homo sapiens, UniProt Q2TB90); assay: HKDC1 hexokinase activators, dose response, biochemical, W721R variant (AID 504730); assay type: functional
T7 sequence (Q2TB90 whole entry): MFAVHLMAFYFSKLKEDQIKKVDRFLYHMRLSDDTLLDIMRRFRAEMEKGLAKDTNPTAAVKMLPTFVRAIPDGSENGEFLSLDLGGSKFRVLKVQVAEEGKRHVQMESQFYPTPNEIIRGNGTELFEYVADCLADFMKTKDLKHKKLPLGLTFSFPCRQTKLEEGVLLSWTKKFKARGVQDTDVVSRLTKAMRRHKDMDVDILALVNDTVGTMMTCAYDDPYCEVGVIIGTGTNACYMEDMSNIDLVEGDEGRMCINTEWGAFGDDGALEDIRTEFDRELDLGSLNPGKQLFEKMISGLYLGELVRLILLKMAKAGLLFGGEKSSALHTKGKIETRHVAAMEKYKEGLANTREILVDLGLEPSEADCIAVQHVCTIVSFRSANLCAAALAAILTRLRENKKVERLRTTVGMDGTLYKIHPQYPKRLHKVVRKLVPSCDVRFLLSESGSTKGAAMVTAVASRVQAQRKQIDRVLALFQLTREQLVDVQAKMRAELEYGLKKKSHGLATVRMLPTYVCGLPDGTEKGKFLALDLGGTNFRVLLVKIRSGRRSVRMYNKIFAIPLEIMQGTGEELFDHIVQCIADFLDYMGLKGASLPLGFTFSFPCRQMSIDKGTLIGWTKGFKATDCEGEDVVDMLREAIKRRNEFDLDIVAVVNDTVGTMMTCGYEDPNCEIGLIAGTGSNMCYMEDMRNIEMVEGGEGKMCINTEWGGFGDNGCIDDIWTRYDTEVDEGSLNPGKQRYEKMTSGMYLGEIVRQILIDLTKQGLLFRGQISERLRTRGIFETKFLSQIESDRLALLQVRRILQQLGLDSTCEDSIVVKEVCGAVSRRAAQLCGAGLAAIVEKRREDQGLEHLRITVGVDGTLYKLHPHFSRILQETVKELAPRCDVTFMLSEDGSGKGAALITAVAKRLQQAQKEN

[20] = cytotoxicity toward NIH3T3 fibroblasts, dose response, counter-screen, cell-based, ATP luminescence, mouse fibroblasts (AID 2010); assay type: functional;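 also: cells exposed to compound for about 90 hours before reading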

T4 sequence (P41145 whole entry): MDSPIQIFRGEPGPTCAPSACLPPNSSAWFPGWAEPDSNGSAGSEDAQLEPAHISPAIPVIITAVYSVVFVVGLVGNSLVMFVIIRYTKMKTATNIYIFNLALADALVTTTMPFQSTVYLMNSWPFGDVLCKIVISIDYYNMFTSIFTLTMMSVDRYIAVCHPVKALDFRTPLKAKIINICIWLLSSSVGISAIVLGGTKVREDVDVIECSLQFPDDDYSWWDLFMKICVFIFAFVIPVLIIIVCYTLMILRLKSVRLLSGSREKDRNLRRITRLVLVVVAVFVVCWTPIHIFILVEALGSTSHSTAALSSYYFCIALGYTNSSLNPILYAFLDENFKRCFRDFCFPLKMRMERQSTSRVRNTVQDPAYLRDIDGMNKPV
T5 sequence (Q8VNN2 whole entry): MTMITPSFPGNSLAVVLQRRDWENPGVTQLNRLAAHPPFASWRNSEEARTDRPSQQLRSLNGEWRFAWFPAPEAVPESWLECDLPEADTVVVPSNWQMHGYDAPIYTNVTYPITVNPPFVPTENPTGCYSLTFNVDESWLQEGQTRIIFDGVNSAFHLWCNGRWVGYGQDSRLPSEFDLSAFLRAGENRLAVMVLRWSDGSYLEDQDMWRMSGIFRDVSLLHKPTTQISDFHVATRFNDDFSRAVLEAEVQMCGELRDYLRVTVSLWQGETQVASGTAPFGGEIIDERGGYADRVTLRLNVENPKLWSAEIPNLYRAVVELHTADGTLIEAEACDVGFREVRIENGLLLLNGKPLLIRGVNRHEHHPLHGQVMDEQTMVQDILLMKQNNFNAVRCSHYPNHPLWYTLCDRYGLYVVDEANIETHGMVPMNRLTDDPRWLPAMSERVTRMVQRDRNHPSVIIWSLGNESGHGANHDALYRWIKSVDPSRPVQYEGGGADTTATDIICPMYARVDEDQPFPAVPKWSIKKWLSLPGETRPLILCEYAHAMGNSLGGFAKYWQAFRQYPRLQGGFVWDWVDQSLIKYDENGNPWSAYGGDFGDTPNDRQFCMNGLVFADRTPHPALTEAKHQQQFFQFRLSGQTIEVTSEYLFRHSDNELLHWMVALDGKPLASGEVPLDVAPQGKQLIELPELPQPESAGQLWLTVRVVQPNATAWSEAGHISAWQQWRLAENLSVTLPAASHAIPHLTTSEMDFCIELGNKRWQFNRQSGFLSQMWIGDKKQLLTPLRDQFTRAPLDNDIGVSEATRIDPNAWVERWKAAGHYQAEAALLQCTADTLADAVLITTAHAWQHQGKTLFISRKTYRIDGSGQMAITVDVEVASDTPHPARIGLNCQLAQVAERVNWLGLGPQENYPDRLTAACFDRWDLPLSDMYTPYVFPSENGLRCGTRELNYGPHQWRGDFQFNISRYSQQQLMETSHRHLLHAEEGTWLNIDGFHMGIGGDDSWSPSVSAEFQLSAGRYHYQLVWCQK
Chain of 1-acylglycerol-3-phosphate O-acyltransferase ABHD5/Perilipin-5 (Q00G26 whole entry, the tested form may be a part): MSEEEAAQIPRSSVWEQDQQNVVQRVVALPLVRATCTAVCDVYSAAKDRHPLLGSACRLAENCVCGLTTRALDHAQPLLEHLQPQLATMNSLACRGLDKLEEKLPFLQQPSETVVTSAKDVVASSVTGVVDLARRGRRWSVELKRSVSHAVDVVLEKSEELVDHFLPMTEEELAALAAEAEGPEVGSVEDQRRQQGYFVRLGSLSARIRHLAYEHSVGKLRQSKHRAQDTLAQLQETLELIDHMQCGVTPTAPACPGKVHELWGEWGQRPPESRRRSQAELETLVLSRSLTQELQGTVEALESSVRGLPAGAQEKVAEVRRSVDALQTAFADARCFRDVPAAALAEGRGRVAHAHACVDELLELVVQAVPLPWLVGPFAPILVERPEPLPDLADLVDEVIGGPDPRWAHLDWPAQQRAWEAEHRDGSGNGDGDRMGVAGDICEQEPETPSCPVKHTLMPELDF
Chain of 1-acylglycerol-3-phosphate O-acyltransferase ABHD5/Perilipin-5 (Q8WTS1 whole entry, the tested form may be a part): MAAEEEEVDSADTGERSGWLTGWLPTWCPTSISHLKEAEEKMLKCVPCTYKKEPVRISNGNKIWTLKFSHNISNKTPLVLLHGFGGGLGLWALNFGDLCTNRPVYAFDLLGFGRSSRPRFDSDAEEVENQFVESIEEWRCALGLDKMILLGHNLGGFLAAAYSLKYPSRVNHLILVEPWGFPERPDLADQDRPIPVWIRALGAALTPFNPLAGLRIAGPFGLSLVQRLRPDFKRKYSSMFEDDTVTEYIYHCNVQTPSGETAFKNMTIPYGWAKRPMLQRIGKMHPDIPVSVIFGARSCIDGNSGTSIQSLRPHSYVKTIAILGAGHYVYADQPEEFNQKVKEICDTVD
Chain of Ion channel NompC (Q7T1G6 whole entry, the tested form may be a part): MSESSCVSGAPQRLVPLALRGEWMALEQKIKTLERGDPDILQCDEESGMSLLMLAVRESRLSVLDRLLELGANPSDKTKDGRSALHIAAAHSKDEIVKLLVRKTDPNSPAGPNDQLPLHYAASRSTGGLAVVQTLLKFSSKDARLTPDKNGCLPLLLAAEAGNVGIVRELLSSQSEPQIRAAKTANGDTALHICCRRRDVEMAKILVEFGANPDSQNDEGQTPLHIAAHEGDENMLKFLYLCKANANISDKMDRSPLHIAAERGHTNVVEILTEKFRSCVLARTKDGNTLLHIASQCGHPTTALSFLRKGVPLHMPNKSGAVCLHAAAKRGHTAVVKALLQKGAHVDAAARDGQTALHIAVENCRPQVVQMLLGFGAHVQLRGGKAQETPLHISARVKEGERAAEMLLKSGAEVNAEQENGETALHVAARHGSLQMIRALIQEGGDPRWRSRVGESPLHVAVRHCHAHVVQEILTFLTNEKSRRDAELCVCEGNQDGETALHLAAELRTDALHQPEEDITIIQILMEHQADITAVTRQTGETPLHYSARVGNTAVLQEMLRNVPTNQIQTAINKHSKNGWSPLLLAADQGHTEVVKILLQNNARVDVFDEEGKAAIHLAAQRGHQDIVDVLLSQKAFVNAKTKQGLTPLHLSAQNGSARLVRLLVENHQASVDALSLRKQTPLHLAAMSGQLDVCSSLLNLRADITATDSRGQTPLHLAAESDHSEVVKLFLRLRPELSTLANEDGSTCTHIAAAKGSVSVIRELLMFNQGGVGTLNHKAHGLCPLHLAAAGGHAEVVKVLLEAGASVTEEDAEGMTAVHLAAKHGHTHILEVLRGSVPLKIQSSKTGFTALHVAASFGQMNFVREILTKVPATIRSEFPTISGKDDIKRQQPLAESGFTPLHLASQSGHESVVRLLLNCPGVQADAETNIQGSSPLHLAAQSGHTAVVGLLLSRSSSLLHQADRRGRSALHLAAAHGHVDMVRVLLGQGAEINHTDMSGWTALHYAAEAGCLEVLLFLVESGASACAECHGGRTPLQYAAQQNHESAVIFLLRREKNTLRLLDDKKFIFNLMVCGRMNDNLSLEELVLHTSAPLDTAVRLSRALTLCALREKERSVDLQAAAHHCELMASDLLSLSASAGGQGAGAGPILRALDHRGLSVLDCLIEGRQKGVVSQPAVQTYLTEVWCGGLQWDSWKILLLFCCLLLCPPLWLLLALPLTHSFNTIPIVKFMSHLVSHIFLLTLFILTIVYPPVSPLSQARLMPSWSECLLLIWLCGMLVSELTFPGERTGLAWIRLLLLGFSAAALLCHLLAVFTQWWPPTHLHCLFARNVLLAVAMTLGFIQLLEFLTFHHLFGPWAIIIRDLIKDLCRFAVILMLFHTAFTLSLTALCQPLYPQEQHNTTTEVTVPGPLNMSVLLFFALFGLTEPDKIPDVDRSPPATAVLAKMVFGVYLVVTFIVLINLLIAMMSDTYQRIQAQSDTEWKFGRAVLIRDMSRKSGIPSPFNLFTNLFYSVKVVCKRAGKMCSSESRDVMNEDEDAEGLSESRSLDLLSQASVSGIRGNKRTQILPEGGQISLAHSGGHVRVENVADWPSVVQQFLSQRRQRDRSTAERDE
Chain of Perilipin-1/ABHD5 (Q8WTS1 whole entry, the tested form may be a part): as the sequence (Q8WTS1 whole entry, the tested form may be a part) above
Chain of Perilipin-1/ABHD5 (O60240 whole entry, the tested form may be a part): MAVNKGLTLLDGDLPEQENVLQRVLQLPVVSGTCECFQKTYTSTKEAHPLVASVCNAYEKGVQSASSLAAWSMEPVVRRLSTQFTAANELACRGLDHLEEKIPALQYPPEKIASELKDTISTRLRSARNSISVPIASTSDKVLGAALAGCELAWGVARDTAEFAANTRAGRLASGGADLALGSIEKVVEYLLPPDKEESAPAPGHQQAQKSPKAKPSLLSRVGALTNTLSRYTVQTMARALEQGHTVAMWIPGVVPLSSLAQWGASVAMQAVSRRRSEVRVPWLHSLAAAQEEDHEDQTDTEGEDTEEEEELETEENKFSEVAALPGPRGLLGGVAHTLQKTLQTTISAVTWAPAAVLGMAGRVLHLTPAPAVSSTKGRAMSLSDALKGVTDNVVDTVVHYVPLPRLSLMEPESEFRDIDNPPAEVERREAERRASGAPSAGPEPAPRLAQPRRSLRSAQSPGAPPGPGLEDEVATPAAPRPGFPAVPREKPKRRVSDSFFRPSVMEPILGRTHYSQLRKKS
Chain of 26S proteasome non-ATPase regulatory subunit 14 (O00487 whole entry): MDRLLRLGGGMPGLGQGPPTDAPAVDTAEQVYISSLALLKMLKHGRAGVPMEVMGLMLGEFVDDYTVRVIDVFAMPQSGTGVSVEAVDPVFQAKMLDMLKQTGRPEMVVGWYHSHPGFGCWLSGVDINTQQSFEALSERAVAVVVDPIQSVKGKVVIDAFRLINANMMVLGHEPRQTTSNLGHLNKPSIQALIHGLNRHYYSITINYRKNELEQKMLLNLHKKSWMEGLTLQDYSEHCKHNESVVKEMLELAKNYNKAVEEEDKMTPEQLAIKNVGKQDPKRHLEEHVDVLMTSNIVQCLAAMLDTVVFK

EC50 [1]: 74.2 µM (inconclusive) | EC50 [2]: 9.14 µM (active) | EC50 [3]: > 300 µM (not active) | EC50 [4]: > 9.97 µM (not active) | EC50 [5]: > 9.97 µM (inactive)
Structure (SMILES): Nc1c(C(=O)c2ccc(Cl)cc2)sc2nsc(SCCN3CCOCC3)c12

IC50 [6]: 19 µM (inactive) | IC50 [7]: 21.7 µM (inactive)
Structure (SMILES): CC1(c2ccccc2)CC(C)(C)N2C(=O)C(=O)c3cccc1c32 (stereo not given)

Structure (SMILES): CC(=O)/C(=N\Nc1ccc(Cl)cc1Cl)Sc1cccc2cccnc12
IC50 [8]: > 100 µM (inactive) | IC50 [9]: 11.4 µM (active) | IC50 [10]: 9.32 µM (active) | IC50 [11]: > 32 µM | IC50 [12]: > 100 µM (inactive) | EC50 [13]: > 31.5 µM (inactive) | EC50 [14]: > 40 µM (inactive) | IC50 [15]: 32.2 µM (active) | IC50 [16]: 10.6 µM (active) | EC50 [17]: 0.289 µM (active) | EC50 [18]: > 80 µM (inactive) | EC50 [19]: 15.5 µM (active) | EC50 [20]: 26.7 µM (active)
